pKi: −log10 of the molar value.
target: Type-2 angiotensin II receptor (Sus scrofa); assay: Displacement of [125I]Ang2 from AT2 receptor in pig uterus membrane

pKi	SMILES
8.40	CCCCN(C)C(=O)NS(=O)(=O)c1sc(CC(C)C)cc1-c1ccc(Cn2ccnc2)cc1 [N-(N-butyl-methylaminocarbonyl)-3-(4-imidazol-1-ylmethylphenyl)-5-isobutylthiophene-2-sulfonamide]
7.51	COCCOC(=O)NS(=O)(=O)c1sc(CC(C)C)cc1-c1ccc(Cn2ccnc2)cc1 [N-(methyloxy-ethyloxycarbonyl)-3-(4-imidazol-1-ylmethylphenyl)-5-iso-butylthiophene-2-sulfonamide]
8.30	CCCCOC(=O)NS(=O)(=O)c1ccc(CCCC)cc1-c1ccc(Cn2ccnc2)cc1 [N-butyloxycarbonyl-2-(4-imidazol-1-ylmethylphenyl)-4-butylbenzenesulfonamide]
7.82	CCCCOC(=O)NS(=O)(=O)c1ccc(OC(C)C)cc1-c1ccc(Cn2ccnc2)cc1 [N-butyloxycarbonyl-2-(4-imidazol-1-ylmethylphenyl)-4-iso-propoxybenzenesulfonamide]
8.30	CCCCOC(=O)NS(=O)(=O)c1sc(CCCC)cc1-c1ccc(Cn2ccnc2)cc1 [N-butyloxycarbonyl-3-(4-imidazol-1-ylmethylphenyl)-5-butylthiophene-2-sulfonamide]
7.10	CCCCS(=O)(=O)NC(=O)c1sc(CC(C)C)cc1-c1ccc(Cn2ccnc2)cc1 [N-butylsulfonyl-3-(4-imidazol-1-ylmethylphenyl)-5-iso-butylthiophene-2-carboxamide]
7.12	CCCCS(=O)(=O)NS(=O)(=O)c1sc(CC(C)C)cc1-c1ccc(Cn2ccnc2)cc1 [N-butylsulfonyl-3-(4-imidazol-1-ylmethylphenyl)-5-iso-butylthiophene-2-sulfonamide]
8.70	CCCCc1ccc(S(=O)(=O)NC(=O)OCC)c(-c2ccc(Cn3ccnc3)cc2)c1 [N-ethyloxycarbonyl-2-(4-imidazol-1-ylmethylphenyl)-4-butylbenzenesulfonamide]
7.12	CC(C)Cc1cc(-c2ccc(Cn3ccnc3)cc2)c(S(=O)(=O)NC(=O)OC(C)C)s1 [N-iso-propyloxycarbonyl-3-(4-imidazol-1-ylmethylphenyl)-5-iso-butylthiophene-2-sulfonamide]
7.20	CC(C)Cc1cc(-c2ccc(Cn3ccnc3)cc2)c(S(=O)(=O)NC(=O)OC(C)(C)C)s1 [N-tert-butyloxycarbonyl-3-(4-imidazol-1-ylmethylphenyl)-5-iso-butylthiophene-2-sulfonamide]

From BindingDB's records for doi:10.1021/jm0606185 (Uppsala University, 2006)
